Assay results reported in patent US20070249729A1, “Method of Treating Elevated Plasma Homocysteine Levels in Esrd Patients” (priority 2003, published 2007).
“And” between values parts separate entries of the source, which are not always exact repeats. Equal values may be shown once.

What was measured:
[1] = cited from earlier work
[2] = human, in vivo
Protocol: To evaluate the in vivo effect of Mesna on plasma tHcy, 5 maintenance hemodialysis patients were recruited to participate in a single dose pilot study. Blood samples were drawn at selected intervals during a mid-week dialysis session during which no Mesna was given. One week later, subjects received a single, 5 mg/kg, pre-dialysis, intravenous dose of Mesna and blood samples were drawn throughout the dialysis session. Dialysate samples were also collected from 2 patients. Total Hcy and cysteine were measured in plasma and dialysate by the modified method of Jacobsen et al.^20 Mesna caused a profound, rapid decrease in plasma tHcy and cysteine (see FIG. 11 and 12). […] A pre-dialysis plasma sample was also drawn before the next dialysis session 2 days later. Plasma tHcy was 2.3 μM lower with Mesna than control (P=0.047) indicating a residual effect of Mesna on tHcy concentrations.
Concentrations of Mesna were also measured in plasma (n=5) and dialysate (n=2) (see FIG. 13).

plasma tHcy and cysteine = assay: Single dose pilot study, 5 maintenance hemodialysis patients: plasma and dialysate tHcy and cysteine; assay type: in vivo, human
Protocol: Blood samples were drawn at selected intervals during a mid-week dialysis session during which no Mesna was given. One week later, subjects received a single, 5 mg/kg, pre-dialysis, intravenous dose of Mesna and blood samples were drawn throughout the dialysis session. Dialysate samples were also collected from 2 patients. […] A pre-dialysis plasma sample was also drawn before the next dialysis session 2 days later.

[3] = tested on: total plasma Hcy and cysteine; assay: In vivo pilot study, 3 ESRD hemodialysis patients, single iv Mesna: intra-dialytic plasma tHcy and cysteine; design: species or system human
Description: 3 vitamin supplemented ([…], Landmark Medical Systems Inc. Unionville, Ontario) maintenance hemodialysis patients (2 males, 1 female) were recruited from the dialysis unit at London Health Sciences Centre-University Campus. Inclusion criteria were any vitamin supplemented patients on thrice weekly hemodialysis for at least 90 days who were willing to sign a letter of informed consent. Patients were excluded from the study if they had serum albumin≦30 g/L. The study protocol was approved by the human subject research ethics board at the University of Western Ontario. Patients were dialyzed with Fresenius Optiflux hollow fiber dialyzers (Fresenius AG, Bad Homburg, Germany). […] On day 5 (corresponding to the third dialysis session) blood samples were also drawn at various times throughout the dialysis treatment (0.5, 1.0, 2.0 and 3.0 hours) to determine baseline kinetic data. Undiluted ultrafiltrate was obtained from 2 patients by stopping the dialysate flow while maintaining the patient on ultrafiltration. Once 200 ml of dialysate had been displaced from the dialyzer, an undiluted ultrafiltrate sample was drawn from a port specially installed for the study. On the treatment day (a mid-week dialysis session corresponding to day 7 of the study), a single 5 mg/kg dose of Mesna was infused directly into the venous return on the dialysis machine over 5 minutes. […] Undiluted ultrafiltrate was also collected from 2 of the patients as described above. Pre- and post-dialysis blood samples were also drawn on each of the 3 subsequent dialysis treatments (corresponding to days 9, 12 and 14) to determine the duration of Mesna's action and how long it remains in the blood. […] Plasma and ultrafiltrate were stored at -20° C. until analysis. […] Results are shown as mean +/-SD. Intra-dialytic changes in tHcy and cysteine concentrations were analyzed by a paired students t-test.

[4] = Intra-dialytic Mesna kinetics in 3 ESRD hemodialysis patients; assay type: in vivo, human
Protocol: (§1) To assess baseline total plasma Hcy concentrations, 5 ml blood samples (EDTA) were drawn pre- and post-dialysis for all 7 dialysis sessions during the 14 day study period. On day 5 (corresponding to the third dialysis session) blood samples were also drawn at various times throughout the dialysis treatment (0.5, 1.0, 2.0 and 3.0 hours) to determine baseline kinetic data. Undiluted ultrafiltrate was obtained from 2 patients by stopping the dialysate flow while maintaining the patient on ultrafiltration. Once 200 ml of dialysate had been displaced from the dialyzer, an undiluted ultrafiltrate sample was drawn from a port specially installed for the study. On the treatment day (a mid-week dialysis session corresponding to day 7 of the study), a single 5 mg/kg dose of Mesna was infused directly into the venous return on the dialysis machine over 5 minutes. Blood samples were drawn pre-dialysis, 4 minutes after Mesna administration, 0.5, 1.0, 2.0, 3.0 hours and post-dialysis. Undiluted ultrafiltrate was also collected from 2 of the patients as described above. Pre- and post-dialysis blood samples were also drawn on each of the 3 subsequent dialysis treatments (corresponding to days 9, 12 and 14) to determine the duration of Mesna's action and how long it remains in the blood. All blood samples were immediately placed on ice and centrifuged within 30 minutes at 1500×g for 10 minutes. Plasma and ultrafiltrate were stored at −20° C. until analysis.
Therefore, the inventors modified the chromoatographic conditions such that 4% acetonitrile was run for 7 minutes and then a gradient of 4% to 70% acetonitrile was used from 7 to 20 minutes.

albumin bound Hcy = albumin bound Hcy (Homo sapiens, UniProt P02768); conditions: 305 μmol/L Mesna
Protocol: Plasma was supplemented with reduced homocysteine (30 μmol/L) and allowed to equilibrate with protein and endogenous thiols for 72 hours. Mesna or diluent (control) was then added to the plasma and incubated at 37° C. for 15 minutes. 1 ml of plasma was pipetted into a micropartition device and centrifuged at 1500×g for 10 minutes. Free (dialyzable) Hcy was then determined in the ultrafiltrate.
30 ml of blood (EDTA) was obtained from a healthy subject with normal renal function. The blood was immediately centrifuged at 1500×g and the plasma was separated. D,L Homocysteine was then added to the plasma to a final concentration of 30 μmol/L. The sample was incubated at 4° C. for 72 hours to allow the homocysteine to covalently bind to protein and other thiols. Mesna was added to 1 ml of plasma to a final concentration of 305 μmol/L. An equal volume of diluent was added to 1 ml of plasma as a control. The plasma (1 ml) was then incubated at 37° C. for 15 minutes after which it was pipetted into an Amicon (Amicon Canada, Oakville, Ontario) type YMT micropartition system for separation of free from protein bound solutes. The micropartition system was centrifuged at 1500 X g for 10 minutes and the ultrafiltrate obtained was stored at −20° C. until analysis.
Total plasma Hcy and other low molecular weight thiols were measured by HPLC-FD after pre-column derivitization as described by Jacobsen et al.^20 Briefly, disulfide bonds were reduced with 1.43 M sodium borohydride. Excess reducing agent was consumed by the addition of 1.2 M HCl after which thiols were derivitized with monobromobimane. Protein was precipitated with 1.5 M perchloric acid and the sample pH was raised to ˜3.5 with a solution of 2M citrate and 10 N NaOH.
Thiol amino acids were separated on a Waters Nova-Pak C18 (150×3.9 mm, 5μ) column. The mobile phase consisted of 4% acetonitrile/25 mM ammonium formate buffer, pH=3.8. Since Mesna is also a low molecular weight thiol it can also be measured as a bimane derivative, although it is very late eluting when the above mentioned chromatographic conditions are used. […]

[5] = Tolerability of Mesna in ESRD hemodialysis patients; assay type: in vivo, human
Protocol: as §1, with “Plasma and ultrafiltrate were stored at −20° C. until analysis.” left out

plasma Hcy = conditions: iv Mesna for 5 days, cancer chemotherapy patients, from 12.3 μmol/L; cited from earlier work
[6] = tested on: plasma tHcy, fractional excretion of Hcy; assay: Oral Mesna, Hcy clearance in 2 subjects with normal kidney function; assay type: in vivo, human
Protocol: The effect of oral Mesna on Hcy clearance was also evaluated in 2 subjects with normal kidney function. The subjects fluid loaded by consuming 2 L of water the morning of the study day. An indwelling catheter was inserted into an appropriate arm vein. At the beginning of the study subjects were asked to void urine and 2×5 mL blood samples were drawn for analysis of tHcy and creatinine. Subsequent blood samples were drawn at 0.5, 1.0 and 1.5 hours for determination of baseline tHcy and creatinine. At these times subjects were also asked to void urine for measurement of urinary tHcy, creatinine and urine volume. Subjects were then given a 10 mg/kg oral dose of Mesna. One hour after the dose, subjects were asked to void their urine and 2×5 mL blood samples were drawn for determination of tHcy and creatinine. At 1.5, 2.0, and 2.5 hours after Mesna, blood samples were drawn for tHcy and creatinine analysis. Urine was also collected at these times for determination of urinary Hcy, creatinine and urinary volume. A final blood sample was drawn 4 hours after administration of Mesna. Mesna caused a slow, small (1.5 μM) decrease in plasma tHcy concentration in both subjects (see FIG. 14). Mesna was detectable in plasma however, maximum concentration (mean 88.6 μM) was less than the 5 mg/kg administered intravenously to dialysis patients (FIG. 15). The fractional excretion of Hcy ([CLHcy/CLCreat]*100) was assessed in the presence and absence of Mesna (see FIG. 16). In the absence of Mesna the fractional excretion of Hcy was only 0.1%. When Mesna was administered the fractional Hcy excretion raised 60 fold to 6.0%.

protein bound Hcy = protein bound Hcy (Homo sapiens, UniProt P02768); assay: In vitro thiol exchange assay (free dialyzable Hcy in plasma/serum); conditions: for AUC of free Hcy vs time: 300 μM, plasma of healthy subjects, n=6, mean +/-SE
Protocol: To determine the efficacy of Mesna in vitro a thiol exchange assay was developed. This assay evaluates the ability of thiol-containing drugs to exchange with protein bound Hcy and other thiols yielding a larger free, dialyzable fraction of Hcy. 60 mL of blood was drawn from 6 healthy subjects and plasma was obtained by centrifugation at 1500×g. D,L Homocysteine was then added to each plasma sample to a final concentration of 30 μM. The samples were allowed to equilibrate at 4° C. for 72 hours to allow covalent, disulfide bonding of Hcy to plasma proteins. To conduct each assay, 380 μL of the aforementioned plasma was pipetted into a 1.7 mL polypropylene snap-cap tube. 20 uL of Mesna (diluted in 4 mM ethylenediaminetetraacetic acid disodium salt (EDTA), pH=7) was then added to the sample to final concentrations ranging from 0 μM (EDTA vehicle) to 10 000 μM. The sample was incubated for 30 minutes at 37° C. 50 μL aliquots were removed at 0, 2, 5, 10, 15 and 30 at which time plasma proteins were precipitated with 25 μL of 15% sulphosalicylic acid. […] Results for each concentration of Mesna are mean +/−SE, n=6.
Numerous compounds that may modulate protein binding and thiol exchange accumulate in the serum of patients with end-stage renal disease (ESRD). To verify that none of these compounds alter Mesna's exchange with protein bound Hcy, a single concentration of Mesna (300 μM) was tested in a thiol exchange assay (described in Example 4) in serum from patients with ESRD or healthy controls.
The in vitro thiol exchange potential of Mesna was compared with another thiol-containing drug, n-acetylcysteine (NAC) by the thiol exchange assay described in Example 4. 300 μM NAC was compared with 150 and 300 μM Mesna in the plasma of healthy subjects.

plasma tHcy = conditions: oral, 4 weeks of treatment, patients on hemodialysis; cited from earlier work
[7] = isolated perfused rat liver; cited from earlier work
[8] = single 5 mg/kg pre-dialysis iv dose, n=5

Chain of protein bound Hcy (P02768 25-609): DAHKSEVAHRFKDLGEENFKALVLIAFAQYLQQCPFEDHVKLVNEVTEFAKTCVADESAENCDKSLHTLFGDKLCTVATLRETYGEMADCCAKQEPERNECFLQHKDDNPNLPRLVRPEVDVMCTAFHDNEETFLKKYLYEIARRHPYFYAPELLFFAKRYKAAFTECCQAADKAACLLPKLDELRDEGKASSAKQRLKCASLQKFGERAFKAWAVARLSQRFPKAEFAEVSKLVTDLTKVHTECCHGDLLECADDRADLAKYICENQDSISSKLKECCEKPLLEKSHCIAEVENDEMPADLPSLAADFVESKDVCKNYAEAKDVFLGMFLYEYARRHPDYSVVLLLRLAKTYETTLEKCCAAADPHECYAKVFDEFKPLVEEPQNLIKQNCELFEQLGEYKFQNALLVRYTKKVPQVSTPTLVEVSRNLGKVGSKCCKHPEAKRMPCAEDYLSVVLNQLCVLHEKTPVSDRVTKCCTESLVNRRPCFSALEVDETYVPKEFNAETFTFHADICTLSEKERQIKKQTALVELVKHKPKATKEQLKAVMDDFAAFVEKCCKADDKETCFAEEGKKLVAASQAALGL
Chain of albumin bound Hcy (P02768 25-609): as above

With `N[C@@H](CS)C(=O)O` [cysteine] as the compound, how does the “pKa of the thiol” value [1] read?
Its value is 8.15.

Which elimination during dialysis [2] does the source give for `O=S(=O)(O)CCS.[Na]` [Mesna, sodium 2-mercaptoethane sulfonic acid] here?
The elimination during dialysis was “first order elimination”.

And the “dialysate Hcy with Mesna compared to control” value (plasma tHcy and cysteine; n=2)?
Its value is “slight increase”.

And the “pre-dialysis plasma tHcy lower with Mesna than control” value (plasma tHcy and cysteine; next dialysis session 2 days later, P=0.047)?
The value was 2.3 µM.

What about the post-dialysis plasma cysteine (plasma tHcy and cysteine; [8]) of the same compound?
The post-dialysis plasma cysteine was 165.1 ± 7.4 µM.

What about the “post-dialysis plasma tHcy” value (plasma tHcy and cysteine; [8]) of the same compound?
The value was 11.6 ± 1.7 µM.

And the “effect on post-dialysis cysteine” value ([3]; 5 mg/kg iv, 3 patients, p=0.009)?
Its value is “significant decrease”.

What about the “effect on post-dialysis tHcy” value ([3]; 5 mg/kg iv, 3 patients, p=0.035) of the same compound?
The value was “significant decrease”.

What about the “pre-dialysis plasma Hcy at second cycle after Mesna” value ([3]; day 12, all patients) of the same compound?
The value was “returned to baseline”.

What about the “time to decrease of total plasma homocysteine after administration” value ([3]; intravenous Mesna, human subjects) of the same compound?
Its value is ≤ 30 min.

What about the “decrease in pre-dialysis plasma tHcy, day 9 vs day 7” value (from here on “decrease in pre-dialysis plasma tHcy”) ([3]; patient 1) of the same compound?
Its value is 3.7 µmol/L.

What about the “decrease in pre-dialysis plasma tHcy” value ([3]; patient 2) of the same compound?
The value was 1.1 µmol/L.

And the “decrease in pre-dialysis plasma tHcy” value ([3]; patient 3)?
The value was 3.1 µmol/L.

What about the “post-dialysis tHcy concentration” value ([3]; single iv 5 mg/kg Mesna, 3 ESRD patients) of the same compound?
Its value is 10.1 µmol/L.

And the “additional decrease of total plasma Hcy compared to dialysis alone” value ([3]; single iv 5 mg/kg dose during dialysis)?
The value was 29%.

What about the “UF Hcy following Mesna treatment” value ([3]; undiluted ultrafiltrate, 2 patients) of the same compound?
Its value is “No increase”.

And the concentration at 14 study day ([4]; human, plasma, intravenous, 5 mg/kg, end of the study period (day 14))?
Its concentration at 14 study day is 13.4 µM.

And the concentration at 4 min ([4]; human, plasma, shortly after administration, 5 mg/kg iv, 3 patients)?
The concentration at 4 min was 296 µM.

And the “plasma Mesna concentration” value ([4]; post-dialysis, 5 mg/kg iv, 3 patients)?
The value was 89.7 ± 32.5 µmol/L.

And the “plasma Mesna concentration” value ([4]; second patient, ~3.5 hours after administration, at onset of nausea)?
The value was ~60 µmol/L.

And the “free Hcy as % of the total plasma Hcy” value (albumin bound Hcy; 15 minute incubation)?
The value was 27.2% and 27%.

And the “Hcy in the free dialyzable form (ultrafiltrate)” value (albumin bound Hcy; 15 minute incubation at 37° C., plasma spiked with 30 μmol/L Hcy)?
Its value is 8.2 µmol/L.

What about the “tolerability, side effect” value ([5]; 5 mg/kg iv, two of 3 patients) of the same compound?
Its value is “mild nausea”.

And the “plasma Hcy after Mesna” value (plasma Hcy)?
Its value is 1.4 µmol/L.

And the “rise of fractional Hcy excretion” value ([6]; 10 mg/kg oral dose vs absence of Mesna)?
The value was 60 fold.

What about the “decrease in plasma tHcy concentration” value ([6]; 10 mg/kg oral dose, 2 subjects with normal kidney function) of the same compound?
The value was 1.5 µM.

And the “fractional excretion of Hcy ([CLHcy/CLCreat]*100)” value ([6]; 10 mg/kg oral dose, normal kidney function)?
Its value is 6.0%.

What about the “pKa of the thiol” value [1] of the same compound?
The value was 9.1.

And the “effect on fraction of free dialyzable Hcy” value (protein bound Hcy; 0 to 10 000 μM Mesna, plasma spiked 30 μM Hcy, n=6)?
The value was “concentration dependent increase”.

And the “AUC of thiol exchange, ESRD serum vs. healthy controls” value (protein bound Hcy; 300 μM Mesna, P>0.05)?
Its value is “no significant difference”.

What about the “AUC of free Hcy vs time” value (protein bound Hcy) of the same compound?
Its value is 1023+/−86.0.

What about the “time to maximal thiol exchange after Mesna addition” value (protein bound Hcy; further in vitro studies with plasma) of the same compound?
Its value is ≤ 2 min.

With `CN(C)CCOC(c1ccccc1)c1ccccc1.Cn1c(=O)c2[nH]c(Cl)nc2n(C)c1=O` [dimenhydrinate] as the compound, how does the “time to reversal of nausea symptoms” value ([5]; administration of dimenhydrinate to patients with Mesna-associated nausea) read?
The value was ≤ 1 min.

With `CC(=O)N[C@@H](CS)C(=O)O` [NAC, n-acetylcysteine] as the compound, how does the “effect on pre-dialysis plasma tHcy” value (plasma tHcy) read?
The value was “small, non-significant decrease”.

What about the “AUC of free Hcy vs time” value (protein bound Hcy) of the same compound?
Its value is 642+/−49.7.

With `O=S(=O)([O-])CCSSCCS(=O)(=O)[O-].[Na+].[Na+]` [diMesna, Mesna disulfide] as the compound, how does the metabolic reduction [7] read?
The metabolic reduction was “reduce diMesna to Mesna”.

With `N[C@@H](CCS)C(=O)O` [homocysteine] as the compound, how does the “pKa of the thiol” value [1] read?
The value was 8.7.
